Here are results for eleven compounds from ChEMBL document CHEMBL1126232, “3-oxagranatane (3-oxa-9-azabicyclo[3.3.1]nonane) derivatives as highly potent serotonin 5-Ht3 receptor antagonists” (Bioorg Med Chem Lett, 1992).

Structures are written as SMILES.

The species named for the first series is Rattus norvegicus. The experiment in a line: animal or person. The class given is functional. The note with it: iv, read-out: ID50 (the source's name).
Description: Antagonistic activity towards serotonin 5-HT3 receptor was evaluated by inhibition of 5-HT evoked reflexes in rat on intravenous administration
Consider `CN1C2CCC1CC(NC(=O)N1CC(C)(C)c3ccccc31)C2` (stereo not drawn), for which the ED50 came out at 0.7 µg/kg. As to `COc1ccccc1NC(=O)NC1CC2CCCC(C1)N2C` (stereo not drawn), the ED50 amounted to 7.5 µg/kg.

For `CN1C2CCC1CC(NC(=O)N1CCc3ccccc31)C2` (stereo not drawn), the ED50 was found to be 1.4 µg/kg. On to `COc1cc(N)c(Cl)cc1C(=O)NC1CC2CCC(C1)N2C` (stereo not drawn), for which the ED50 came to 0.8 µg/kg.

With `COc1ccccc1NC(=O)NC1CC2COCC(C1)N2C` (stereo not drawn), the ED50 was found to be 1.1 µg/kg.

Regarding `CN1C2COCC1CC(NC(=O)c1nn(C)c3ccccc13)C2` (stereo not drawn), the ED50 turned out to be 0.16 µg/kg. On to `COc1ccccc1NC(=O)NC1CC2CCC(C1)N2C` (stereo not drawn), for which the ED50 was found to be 2.5 µg/kg.

In the case of `CN1C2COCC1CC(NC(=O)N1CC(C)(C)c3ccccc31)C2` (stereo not drawn), the ED50 came out at 0.13 µg/kg. For `COc1cc(N)c(Cl)cc1C(=O)NC1CC2COCC(C1)N2C` (stereo not drawn), the ED50 is 0.09 µg/kg.

For `COc1cc(N)c(Cl)cc1C(=O)NC1CC2CCCC(C1)N2C` (stereo not drawn), the ED50 is 0.4 µg/kg.

Tested on in the next series: not listed separately
The experiment in a line: pKa value was determined. It is filed as physicochemical.
Conditions: not given
One may read the pKa as the pH at which an ionisable group is half protonated. Read a low pKa as a group that gives up its proton readily. The compound `CN1C2CCC1CC(NC(=O)N1CC(C)(C)c3ccccc31)C2` (stereo not drawn) yielded a pKa of 9.4.

In turn, `CN1C2CCCC1CC(NC(=O)c1nn(C)c3ccccc13)C2` (stereo not drawn) [GRANISETRON] gave a pKa of 9.1.

Compound `CN1C2COCC1CC(NC(=O)N1CC(C)(C)c3ccccc31)C2` (stereo not drawn) had a pKa of 7.1.
